In the supplement of paper PMC10307832:

How the values were obtained:
Assay in all cases: relative viability (nuclei count vs DMSO), 5 days (fraction); higher = more cells survive
Shikonin + Dasatinib = compound: CC(C)=CC[C@@H](O)C1=CC(=O)c2c(O)ccc(O)c2C1=O [Shikonin] + Cc1nc(Nc2ncc(C(=O)Nc3c(C)cccc3Cl)s2)cc(N2CCN(CCO)CC2)n1 [Dasatinib] (partner 0.075 µM)
Method in brief: (§1)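 The day after seeding in 1536-well plates, lung cancer cell lines were treated by pin tool with a single drug, or with a fixed anchor-drug dose together with five library-drug doses (not always all listed) in √10 steps. After 5 days, a combined fix-and-stain solution (final 0.05% Triton X-100, 1% formaldehyde, 1 ug/ml Hoechst) was added. Nuclei counted on 4× images gave relative viability as treated counts over vehicle counts, reported as the median of duplicate plates.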

[1] = compound: CC(C)N(CCCNC(=O)Nc1ccc(C(C)(C)C)cc1)C[C@H]1O[C@@H](n2ccc3c(N)ncnc32)[C@H](O)[C@@H]1O + COc1cccc2cc(-c3nc([C@H]4CC[C@H](C(=O)O)CC4)n4ncnc(N)c34)[nH]c12 [OSI-027] (partner 0.5 µM)
Method in brief: as §1

[2] = compound: CC(C)N(CCCNC(=O)Nc1ccc(C(C)(C)C)cc1)C[C@H]1O[C@@H](n2ccc3c(N)ncnc32)[C@H](O)[C@@H]1O + Cc1nc(NC(=O)N2CCC[C@H]2C(N)=O)sc1-c1ccnc(C(C)(C)C(F)(F)F)c1 [Alpelisib] (partner 2 µM)
Method in brief: as §1

[3] = compound: CC(C)N(CCCNC(=O)Nc1ccc(C(C)(C)C)cc1)C[C@H]1O[C@@H](n2ccc3c(N)ncnc32)[C@H](O)[C@@H]1O + O=C(CCCCCCC(=O)Nc1ccccc1)NO [Vorinostat] (partner 1 µM)
Method in brief: as §1

NCI-H2009 was tested, and the relative viability (Shikonin + Dasatinib; first compound 0.01 µM) was 0.281, the relative viability (Shikonin + Dasatinib; first compound 0.1 µM) was 0.301 and the relative viability (Shikonin + Dasatinib; first compound 0.3162 µM) was 0.239. The relative viability (Shikonin + Dasatinib; first compound 1 µM) was 0.134, the relative viability ([1]; first compound 0.08 µM) was 0.641 and the relative viability ([1]; first compound 0.253 µM) was 0.722. The relative viability ([1]; first compound 0.8 µM) was 0.702, the relative viability ([1]; first compound 2.53 µM) was 0.599 and the relative viability ([1]; first compound 8 µM) was 0.587. The relative viability ([2]; first compound 0.08 µM) was 1.19, the relative viability ([2]; first compound 0.253 µM) was 1.15 and the relative viability ([2]; first compound 0.8 µM) was 1.22. The relative viability ([2]; first compound 2.53 µM) was 1.22, the relative viability ([2]; first compound 8 µM) was 1.18 and the relative viability ([3]; first compound 0.08 µM) was 0.728. For the same cell line, the relative viability ([3]; first compound 0.253 µM) was 0.73, the relative viability ([3]; first compound 0.8 µM) was 0.703 and the relative viability ([3]; first compound 2.53 µM) was 0.744. It also gave a relative viability ([3]; first compound 8 µM) of 0.675.

NCI-H441 showed a relative viability (Shikonin + Dasatinib; first compound 0.01 µM) of 0.632, a relative viability (Shikonin + Dasatinib; first compound 0.1 µM) of 0.466 and a relative viability (Shikonin + Dasatinib; first compound 0.3162 µM) of 0.631. For the same cell line, the relative viability (Shikonin + Dasatinib; first compound 1 µM) was 0.675, the relative viability ([1]; first compound 0.08 µM) was 0.589 and the relative viability ([1]; first compound 0.253 µM) was 0.587. It also gave a relative viability ([1]; first compound 2.53 µM) of 0.735, a relative viability ([1]; first compound 8 µM) of 0.661 and a relative viability ([2]; first compound 0.253 µM) of 0.653. For the same cell line, the relative viability ([2]; first compound 0.8 µM) was 0.88, the relative viability ([2]; first compound 2.53 µM) was 0.677 and the relative viability ([2]; first compound 8 µM) was 0.712. The relative viability ([3]; first compound 0.08 µM) was 0.811, the relative viability ([3]; first compound 0.253 µM) was 0.641 and the relative viability ([3]; first compound 2.53 µM) was 0.784. The relative viability ([3]; first compound 8 µM) was 0.654.

PC-3 [JPC-3] was tested, and the relative viability (Shikonin + Dasatinib; first compound 0.01 µM) was 1.11, the relative viability (Shikonin + Dasatinib; first compound 0.1 µM) was 0.968 and the relative viability (Shikonin + Dasatinib; first compound 0.3162 µM) was 1.1. For the same cell line, the relative viability (Shikonin + Dasatinib; first compound 1 µM) was 0.958, the relative viability ([1]; first compound 0.08 µM) was 0.801 and the relative viability ([1]; first compound 0.253 µM) was 0.867. It also gave a relative viability ([1]; first compound 0.8 µM) of 0.718, a relative viability ([1]; first compound 2.53 µM) of 0.779 and a relative viability ([1]; first compound 8 µM) of 0.721. For the same cell line, the relative viability ([2]; first compound 0.08 µM) was 1.04, the relative viability ([2]; first compound 0.253 µM) was 1 and the relative viability ([2]; first compound 0.8 µM) was 0.896. The relative viability ([2]; first compound 2.53 µM) was 1, the relative viability ([2]; first compound 8 µM) was 1.01 and the relative viability ([3]; first compound 0.08 µM) was 0.813. The relative viability ([3]; first compound 0.253 µM) was 0.761, the relative viability ([3]; first compound 2.53 µM) was 0.741 and the relative viability ([3]; first compound 8 µM) was 0.695.

In the case of NCI-H1648, the relative viability ([1]; first compound 0.08 µM) is reported as 0.277, the relative viability ([1]; first compound 0.253 µM) is reported as 0.258 and the relative viability ([1]; first compound 0.8 µM) is reported as 0.247. The relative viability ([1]; first compound 2.53 µM) was 0.247, the relative viability ([1]; first compound 8 µM) was 0.293 and the relative viability ([3]; first compound 0.08 µM) was 0.466. The relative viability ([3]; first compound 0.253 µM) was 0.4, the relative viability ([3]; first compound 0.8 µM) was 0.407 and the relative viability ([3]; first compound 2.53 µM) was 0.481. The relative viability ([3]; first compound 8 µM) was 0.64.

Work on NCI-H1792 yielded a relative viability (Shikonin + Dasatinib; first compound 0.01 µM) of 0.91, a relative viability (Shikonin + Dasatinib; first compound 0.1 µM) of 0.6 and a relative viability (Shikonin + Dasatinib; first compound 0.3162 µM) of 0.934. For the same cell line, the relative viability (Shikonin + Dasatinib; first compound 1 µM) was 1.01, the relative viability ([1]; first compound 0.08 µM) was 0.693 and the relative viability ([1]; first compound 0.253 µM) was 0.702. It also gave a relative viability ([1]; first compound 0.8 µM) of 0.716, a relative viability ([1]; first compound 2.53 µM) of 0.586 and a relative viability ([1]; first compound 8 µM) of 0.72. The relative viability ([2]; first compound 0.08 µM) was 0.671, the relative viability ([2]; first compound 0.253 µM) was 0.497 and the relative viability ([2]; first compound 0.8 µM) was 0.688. It also gave a relative viability ([2]; first compound 2.53 µM) of 0.696 and a relative viability ([2]; first compound 8 µM) of 0.668.

With ChaGo-K-1 the relative viability (Shikonin + Dasatinib; first compound 0.01 µM) was 0.501, the relative viability (Shikonin + Dasatinib; first compound 0.1 µM) was 0.616 and the relative viability (Shikonin + Dasatinib; first compound 0.3162 µM) was 0.56. For the same cell line, the relative viability (Shikonin + Dasatinib; first compound 1 µM) was 0.67, the relative viability ([1]; first compound 0.08 µM) was 0.525 and the relative viability ([1]; first compound 0.253 µM) was 0.616. The relative viability ([1]; first compound 0.8 µM) was 0.471, the relative viability ([1]; first compound 2.53 µM) was 0.628 and the relative viability ([1]; first compound 8 µM) was 0.585. The relative viability ([3]; first compound 0.08 µM) was 0.785, the relative viability ([3]; first compound 0.253 µM) was 0.827 and the relative viability ([3]; first compound 0.8 µM) was 0.756. It also gave a relative viability ([3]; first compound 2.53 µM) of 0.715 and a relative viability ([3]; first compound 8 µM) of 0.766.

HCC-44 showed a relative viability ([1]; first compound 0.08 µM) of 0.507, a relative viability ([1]; first compound 0.253 µM) of 0.509 and a relative viability ([1]; first compound 0.8 µM) of 0.432. The relative viability ([1]; first compound 2.53 µM) was 0.572, the relative viability ([1]; first compound 8 µM) was 0.552 and the relative viability ([2]; first compound 0.08 µM) was 0.811. It also gave a relative viability ([2]; first compound 0.253 µM) of 0.785, a relative viability ([2]; first compound 0.8 µM) of 0.744 and a relative viability ([2]; first compound 2.53 µM) of 0.787. It also gave a relative viability ([2]; first compound 8 µM) of 0.806, a relative viability ([3]; first compound 0.08 µM) of 1.1 and a relative viability ([3]; first compound 0.253 µM) of 1.26. For the same cell line, the relative viability ([3]; first compound 0.8 µM) was 1.04, the relative viability ([3]; first compound 2.53 µM) was 1.1 and the relative viability ([3]; first compound 8 µM) was 1.01.

In the case of A549, the relative viability ([2]; first compound 0.08 µM) is reported as 0.68, the relative viability ([2]; first compound 0.253 µM) is reported as 0.848 and the relative viability ([2]; first compound 0.8 µM) is reported as 0.948. For the same cell line, the relative viability ([2]; first compound 2.53 µM) was 0.723 and the relative viability ([2]; first compound 8 µM) was 0.659.

In the case of NCI-H1563, the relative viability (Shikonin + Dasatinib; first compound 0.01 µM) is reported as 0.379, the relative viability (Shikonin + Dasatinib; first compound 0.1 µM) is reported as 0.435 and the relative viability (Shikonin + Dasatinib; first compound 0.3162 µM) is reported as 0.467. It also gave a relative viability (Shikonin + Dasatinib; first compound 1 µM) of 0.458, a relative viability ([1]; first compound 0.08 µM) of 0.742 and a relative viability ([1]; first compound 0.253 µM) of 0.782. The relative viability ([1]; first compound 0.8 µM) was 0.73, the relative viability ([1]; first compound 2.53 µM) was 0.713 and the relative viability ([1]; first compound 8 µM) was 0.799. It also gave a relative viability ([2]; first compound 0.08 µM) of 0.991, a relative viability ([2]; first compound 0.253 µM) of 0.907 and a relative viability ([2]; first compound 0.8 µM) of 1.09. The relative viability ([2]; first compound 2.53 µM) was 0.973 and the relative viability ([2]; first compound 8 µM) was 0.991.

NCI-H522 gave a relative viability (Shikonin + Dasatinib; first compound 0.01 µM) of 0.901, a relative viability (Shikonin + Dasatinib; first compound 0.1 µM) of 0.852 and a relative viability (Shikonin + Dasatinib; first compound 0.3162 µM) of 1.04. For the same cell line, the relative viability (Shikonin + Dasatinib; first compound 1 µM) was 1.16, the relative viability ([1]; first compound 0.08 µM) was 0.58 and the relative viability ([1]; first compound 0.253 µM) was 0.895. The relative viability ([1]; first compound 0.8 µM) was 0.848, the relative viability ([1]; first compound 2.53 µM) was 0.643 and the relative viability ([1]; first compound 8 µM) was 0.809. The relative viability ([3]; first compound 0.08 µM) was 0.771, the relative viability ([3]; first compound 0.253 µM) was 0.801 and the relative viability ([3]; first compound 0.8 µM) was 0.697. The relative viability ([3]; first compound 2.53 µM) was 0.858 and the relative viability ([3]; first compound 8 µM) was 0.82.

IA-LM gave a relative viability ([2]; first compound 0.08 µM) of 0.667, a relative viability ([2]; first compound 0.253 µM) of 0.759 and a relative viability ([2]; first compound 0.8 µM) of 0.787. It also gave a relative viability ([2]; first compound 2.53 µM) of 0.701, a relative viability ([2]; first compound 8 µM) of 0.723 and a relative viability ([3]; first compound 0.08 µM) of 0.88. It also gave a relative viability ([3]; first compound 0.253 µM) of 0.761, a relative viability ([3]; first compound 0.8 µM) of 0.909 and a relative viability ([3]; first compound 2.53 µM) of 0.968. The relative viability ([3]; first compound 8 µM) was 0.96.

NCI-H1703 gave a relative viability ([2]; first compound 0.08 µM) of 0.309, a relative viability ([2]; first compound 0.253 µM) of 0.322 and a relative viability ([2]; first compound 0.8 µM) of 0.304. For the same cell line, the relative viability ([2]; first compound 2.53 µM) was 0.439 and the relative viability ([2]; first compound 8 µM) was 0.318.

Work on SW 900 yielded a relative viability (Shikonin + Dasatinib; first compound 0.01 µM) of 0.5, a relative viability (Shikonin + Dasatinib; first compound 0.1 µM) of 0.592 and a relative viability (Shikonin + Dasatinib; first compound 0.3162 µM) of 0.545. The relative viability (Shikonin + Dasatinib; first compound 1 µM) was 0.634, the relative viability ([1]; first compound 0.08 µM) was 0.482 and the relative viability ([1]; first compound 0.253 µM) was 0.569. For the same cell line, the relative viability ([1]; first compound 2.53 µM) was 0.691, the relative viability ([1]; first compound 8 µM) was 0.512 and the relative viability ([3]; first compound 0.08 µM) was 0.639. The relative viability ([3]; first compound 0.253 µM) was 0.38, the relative viability ([3]; first compound 2.53 µM) was 0.562 and the relative viability ([3]; first compound 8 µM) was 0.548.
